Experimental data as given in US9796728B2, “Cyclic carbonate monomer containing double-sulfur five-membered ring functional group, and preparation method thereof” (BrightGene Bio-Medical Technology Co., Ltd., priority 2014, dated 2017).

Tested on: B16 melanoma
Assay: Treating melanoma-bearing mice with drug-loaded crosslinked nanoparticles
Type: in vivo, C57BL/6 black mice
Protocol: C57BL/6 black mice with body weight of about 18˜20 g, aged 4˜6 weeks were used in the experiment. The mice were weighed and equally grouped based on body weight, then 1×10^6 B16 melanoma cells were subcutaneously injected. After one week, when the size of the tumors was 30˜50 mm^3, the drug-loaded nanoparticles and free DOX were injected into the mice through tail veins at Day 0, 2, 4, 6, and 8, where the amount of DOX in drug-carrying nanoparticles was 10, 20, 30 mg/kg, […] From Day 0 to 15, the body weight of the mice in each group was weighed every day. The size of the tumor was precisely measured with Vernier scale, where the method for calculating the volume of tumors was: V=(L×W×H)/2, (where L was the length of the tumor, W was the width of the tumor, H was the thickness of the tumor). The survival of the mice was observed continuously till the 46th day.
FIG. 11 is a curve graph showing that the doxorubicin-loaded polymer PEG5k-b-PCDC2.8k crosslinked nanoparticles inhibit tumor growth on melanoma-bearing mice; FIG. 12 is a curve graph showing the change of body weight of the mice. FIG. 13 is a curve graph showing the survival of the mice.

## COc1cccc2c1C(=O)c1c(O)c3c(c(O)c1C2=O)C[C@@](O)(C(=O)CO)C[C@@H]3O[C@H]1C[C@H](N)[C@H](O)[C@H](C)O1 [free DOX, doxorubicin]
DOX group, in 7 days
  body weight decrease: 23%
DOX group, printed as 30 mg/kg
  day of treatment on which all mice died: 10 days
Free DOX group
  toxic side effects on the mice: severe toxic side effect
